From patent publication US20120232062A1, “AZAINDAZOLES TO TREAT FLAVIVIRIDAE VIRUS INFECTION” (EIGER BIOPHARMACEUTICALS, INC., priority 2009, published 2012)

Key:
CYP 2C9 = biological target: T1, CYP 2C9 (Homo sapiens, UniProt P11712); experiment: CYP inhibition testing, CYP 2C9; assay type: in vitro ADME; details: human liver microsomes; >75 = low level of inhibition
T1 construct: For human liver microsome solution, a stock solution (20 mg/mL (4×final)) is used; from tissue; host or cells: human liver microsomes
Protocol: (§1) Select compounds are tested for CYP inhibition against five different CYP enzymes: CYP 1A2, CYP 2C9, CYP 2C19, CYP 2D6, CYP 3A4. Individual CYP enzymes are incubated with corresponding substrates with no inhibitor (negative control). Individual CYP enzymes are then incubated with corresponding substrates in the presence of test compound. […] Values of 70>v, w, x, y, z>30 indicate moderate level of inhibition of the corresponding enzyme.
(§2) The following reagents are used: Sodium Phosphate, monobasic; Sodium Phosphate, dibasic; β-Nicotinamide Adenine Dinucleotide Phosphate-Reduced (NADPH), Roche; Milli-Q Water; 0.1 M Potassium phosphate buffer (K-buffer), pH 7.4. The following stock solutions are used. Stock A (136.5 g of monobasic potassium phosphate in 1 L of Milli-Q water (1.0 M)). Stock B (174.2 g of dibasic potassium phosphate in 1 L of Milli-Q water (1.0 M)). 40.5 mL of Stock B is mixed with 9.5 mL of Stock A, and the total volume brought near 500 mL with Milli-Q water to give 0.1 M potassium phosphate buffer. The buffer is titrated with KOH or H3PO4 to pH 7.4. To prepare a cofactor buffer (4×, 8 mM NADPH), 66.7 mg of NADPH tetrasodium salt is dissolved in 10 mL of K-buffer. For human liver microsome solution, a stock solution (20 mg/mL (4×final)) is used.
(§3) The following Positive control stock solutions are prepared: 0.3 mM α-Naphthoflavone (MW: 272.3, 0.0817 mg of α-Naphthoflavone in 1 mL DMSO), 10 mM Sulfaphenazole (MW: 314.4, 3.14 mg of sulfaphenazole in 1 mL DMSO) 100 mM Omeprazole (MW: 345.4, 34.54 mg of omeprazole in 1 mL DMSO), 2.5 mM Quinidine (MW: 324, 0.81 mg of quinidine in 1 mL DMSO), and 2.5 mM Ketoconazole (MW: 531.4, 1.33 mg of ketoconazole in 1 mL DMSO).
(§4) The following substrate stock solutions are prepared: 6 mM Phenacetin (MW: 179.22, 1.075 mg of phenacetin in 1 mL can), 10 mM Diclofenac (MW: 318.83, 3.18 mg of Diclofenac in 1 ml H2O), 35 mM S-Mephenyloin (MW: 218.25, 7.64 mg of s-mephenyloin in 1 mL ACN 10 mM Bufuralol (MW: 297.82, 2.98 mg of Bufuralol in 1 ml H2O), 1 mM Midazolam (MW: 325.77, 0.326 mg of midazolam in 1 mL can), and 10 mM Testosterone (MW: 288.42, 2.88 mg of Testosterone in 1 ml ACN.
(§5) Test compounds and reference compounds (positive control) are prepared in 0.2 mg/ml liver microsome solution. A 0.2 mg/ml liver microsome solution (2×final) is prepared from stock solution by adding 10 μL microsome stock solutions (20 mg/ml) in 990 μL K-buffer. 8 μL of 10 mM test compound stock solution (in DMSO or other solvent at various concentrations) is diluted with 12 μL ACN to make 4 mM solutions. 1:3 serial dilutions are performed using DMSO/ACN (40:60) from 4 mM solution further down seven concentration points (400×final): 4 mM, 1.33 mM, 0.44 mM, 0.148 mM, […], 0.0165 mM, 0.00549 mM, 0 mM. […]

CYP 3A4 = biological target: T2, CYP 3A4 (Homo sapiens, UniProt P08684); experiment: CYP inhibition testing, CYP 3A4; assay type: in vitro ADME; details: human liver microsomes; >75 = low level of inhibition
T2 construct: For human liver microsome solution, a stock solution (20 mg/mL (4×final)) is used; from tissue; host or cells: human liver microsomes
Protocol: as §1, §2, §3, §4, §5

T1 sequence (P11712 whole entry): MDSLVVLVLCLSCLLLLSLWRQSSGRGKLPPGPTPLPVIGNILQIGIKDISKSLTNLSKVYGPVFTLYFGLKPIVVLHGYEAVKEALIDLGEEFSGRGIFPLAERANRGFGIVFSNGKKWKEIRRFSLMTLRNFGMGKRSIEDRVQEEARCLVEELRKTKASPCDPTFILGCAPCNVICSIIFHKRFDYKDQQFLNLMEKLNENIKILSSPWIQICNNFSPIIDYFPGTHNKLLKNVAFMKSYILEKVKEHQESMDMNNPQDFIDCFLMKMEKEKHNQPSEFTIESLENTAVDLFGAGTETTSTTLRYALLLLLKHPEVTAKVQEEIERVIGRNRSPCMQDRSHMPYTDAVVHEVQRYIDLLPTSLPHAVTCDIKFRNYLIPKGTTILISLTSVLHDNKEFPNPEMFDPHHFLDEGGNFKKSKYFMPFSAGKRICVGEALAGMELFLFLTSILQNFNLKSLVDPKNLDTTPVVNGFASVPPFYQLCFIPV
T2 sequence (P08684 whole entry): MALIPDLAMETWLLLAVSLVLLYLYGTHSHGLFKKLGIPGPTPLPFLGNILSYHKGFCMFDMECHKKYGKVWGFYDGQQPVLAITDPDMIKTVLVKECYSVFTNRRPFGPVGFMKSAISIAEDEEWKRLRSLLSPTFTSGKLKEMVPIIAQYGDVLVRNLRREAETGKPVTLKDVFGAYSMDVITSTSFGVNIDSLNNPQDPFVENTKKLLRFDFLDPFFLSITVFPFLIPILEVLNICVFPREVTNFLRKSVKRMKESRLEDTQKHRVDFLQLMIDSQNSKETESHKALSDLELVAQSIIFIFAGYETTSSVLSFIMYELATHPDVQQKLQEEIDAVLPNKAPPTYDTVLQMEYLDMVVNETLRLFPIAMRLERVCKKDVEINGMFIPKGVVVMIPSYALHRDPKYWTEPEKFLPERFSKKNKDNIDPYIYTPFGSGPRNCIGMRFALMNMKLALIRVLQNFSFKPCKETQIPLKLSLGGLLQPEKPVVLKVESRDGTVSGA

Row | SMILES | CYP (% negative controls) 2C9 (CYP 2C9) | CYP (% negative controls) 3A4 (CYP 3A4)
1 | Cn1nc(C(=O)NC2CCNCC2)c2ccc(N3CCCCCC3)nc21.O=C(O)C(F)(F)F.O=C(O)C(F)(F)F [compound 697] | 92 % negative controls | 110 % negative controls
2 | CCC(CC)Oc1ccc2c(C(=O)NC3CCNCC3)n[nH]c2n1 [compound 726] | 84 % negative controls | 60 % negative controls
3 | Cn1nc(C(=O)NC2CCN(CCN3CCCCC3)CC2)c2ccc(N3CCCCCC3)nc21 [compound 1047] | 91 % negative controls | 113 % negative controls
4 | Cn1nc(CCCN2CCCC2)c2ccc(N3CCCCCCC3)nc21 [compound 1171] | 141 % negative controls | 67 % negative controls
